Laboratory results: patent publication US10414734B2, “5-hydroxyalkylbenzimidazoles as mIDH1 inhibitors” (BAYER PHARMA AKTIENGESELLSCHAFT, priority 2015, dated 2019)

Molecular target: IDH1 R132H enzyme (Homo sapiens (Human), UniProt O75874, R132H)
Test: Mutant IDH1 R132H biochemical assay
Conditions: luminescent NADPH consumption readout; 1.5 nM enzyme, 1 μM NADPH, 250 μM α-KG, 30 min, 32° C.
Protocol: Mutant IDH1 R132H Biochemical Assay
mIDH1 catalyzes the NADPH-dependent reduction of alpha-ketoglutarate (α-KG) to (2R)-2-hydroxyglutarate (2-HG). NADPH consumption was measured by luminescent readout.
The biochemical reactions were performed at 32° C. in 384-well plates using a reaction volume of 41 μL and the following assay buffer conditions: 50 mM Tris pH 7.5, 100 mM NaCl, 20 mM MgCl2, 0.05% BSA, 0.01% Brij, 1 μM NADPH, and 250 μM α-KG. The IDH1 R132H enzyme was used in a final concentration of 1.5 nM. Test compounds were used in a concentration range between 0.002 and 10 μM. The final DMSO concentration was 2.4%.
The reaction was incubated for 30 minutes, then 40 μL of detection mix (0.75 μg/ml Luciferase, 0.02 U/ml Oxidoreductase, 4 μg/mL FMN, 2 μL/ml decanal/ethanol, 50 mM Tris pH 7.5, 0.5% Glycerin, 0.01% Tween-20, 0.05% BSA) was added. Luminescence was measured on a luminescent reader (10 seconds measuring time, 1 second integration period, 30% sensitivity). The decrease in luminescence is proportional to mIDH1 activity. IC50 values are determined by interpolation from plots of relative luminescence versus inhibitor concentration.

IDH1 R132H enzyme, sequence (O75874 whole entry R132H): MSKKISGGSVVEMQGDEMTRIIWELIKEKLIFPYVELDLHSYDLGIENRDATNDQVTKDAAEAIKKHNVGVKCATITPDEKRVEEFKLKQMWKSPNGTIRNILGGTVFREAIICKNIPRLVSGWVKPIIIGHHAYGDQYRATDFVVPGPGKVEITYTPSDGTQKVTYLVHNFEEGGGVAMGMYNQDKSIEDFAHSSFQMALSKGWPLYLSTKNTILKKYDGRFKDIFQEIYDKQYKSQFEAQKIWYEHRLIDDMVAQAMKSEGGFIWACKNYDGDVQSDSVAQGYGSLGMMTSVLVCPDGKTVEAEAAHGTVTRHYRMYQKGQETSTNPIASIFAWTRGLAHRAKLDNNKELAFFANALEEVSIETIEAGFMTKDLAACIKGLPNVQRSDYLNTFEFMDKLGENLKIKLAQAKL

## COc1cc2c(cc1CC(C)(C)O)nc(Nc1ccc(OC(F)(F)F)cc1)n2[C@H]1C[C@@H](C)CC(C)(C)C1 (racemic) [Example 2-9, (±) 1-(6-methoxy-2-{[4-(trifluoromethoxy)phenyl]amino}-1-[(cis)-3,3,5-trimethylcyclohexyl]-1H-benzimidazol-5-yl)-2-methylpropan-2-ol]
  IC50: 20 nM

## CC(C)[C@@H]1CC[C@@H](C)C[C@H]1n1c(Nc2ccc(OC(F)(F)F)cc2)nc2cc(CCC(C)(C)O)ccc21 [Example 2-18, 4-(1-[(1R,2S,5R)-2-isopropyl-5-methylcyclohexyl]-2-{[4-(trifluoro-methoxy)phenyl]amino}-1H-benz-imidazol-5-yl)-2-methylbutan-2-ol]
  IC50: 100 nM

## CC(C)c1ccc(Nc2nc3cc(CC(C)(C)O)ccc3n2[C@@H]2C[C@H](C)CC[C@H]2C(C)C)cc1 [Example 2-16, 1-{1-[(1R,2S,5R)-2-isopropyl-5-methylcyclohexyl]-2-[(4-isopropyl-phenyl)amino]-1H-benzimidazol-5-yl}-2-methylpropan-2-ol]
  IC50: 60 nM

## Cc1cc2c(cc1CC(C)(C)O)nc(Nc1ccc(OC(F)(F)F)cc1)n2[C@H]1C[C@@H](C)CC(C)(C)C1 (single isomer, unassigned; enantiomer b) [Example 2-8-2, 2-methyl-1-(6-methyl-2-{[4-(trifluoromethoxy)phenyl]amino}-1-[(cis)-3,3,5-trimethylcyclohexyl]-1H-benzimidazol-5-yl)propan-2-ol, enantiomer B]
  IC50: 10 nM

## CC(C)Oc1ccc(Nc2nc3cc(CCC(C)(C)O)ccc3n2[C@@H]2C[C@H](C)CC[C@H]2C(C)C)cc1 [Example 2-20, 4-{2-[(4-isopropoxyphenyl)amino]-1-[(1R,2S,5R)-2-isopropyl-5-methylcyclohexyl]-1H-benzimidazol-5-yl}-2-methylbutan-2-ol]
  IC50: 300 nM

## CC(C)[C@@H]1CC[C@@H](C)C[C@H]1n1c(Nc2ccc(OC(F)(F)F)cc2)nc2cc(C(C)(C)O)ccc21 [Example 2-13, 2-(1-[(1R,2S,5R)-2-isopropyl-5-methylcyclohexyl]-2-{[4-(trifluoromethoxy)phenyl]-amino}-1H-benzimidazol-5-yl)propan-2-ol]
  IC50: 80 nM

## CC(C)Oc1ccc(Nc2nc3cc(CC(C)(C)O)ccc3n2[C@@H]2C[C@H](C)CC[C@H]2C(C)C)cc1 [Example 2-17, 1-{2-[(4-isopropoxyphenyl)amino]-1-[(1R,2S,5R)-2-isopropyl-5-methylcyclohexyl]-1H-benz-imidazol-5-yl}-2-methylpropan-2-ol]
  IC50: 160 nM

## C[C@@H]1C[C@H](n2c(Nc3ccc(OC(F)(F)F)cc3)nc3cc(CCC(C)(C)O)ccc32)CC(C)(C)C1 (single isomer, unassigned; enantiomer a) [Example 2-11-1, 2-methyl-4-(2-{[4-(trifluoromethoxy)phenyl]amino}-1-[(cis)-3,3,5-trimethylcyclohexyl]-1H-benzimidazol-5-yl)butan-2-ol, enantiomer A]
  IC50: 210 nM

## COc1cc2c(cc1C(C)(C)O)nc(Nc1ccc(OC(F)(F)F)cc1)n2[C@H]1C[C@@H](C)CC(C)(C)C1 (racemic) [Example 2-7, (±) 2-(6-methoxy-2-{[4-(trifluoromethoxy)phenyl]amino}-1-[(cis)-3,3,5-trimethylcyclohexyl]-1H-benzimidazol-5-yl)propan-2-ol]
  IC50: 20 nM

## CC(C)c1ccc(Nc2nc3cc(C(C)(C)O)ccc3n2[C@@H]2C[C@H](C)CC[C@H]2C(C)C)cc1 [Example 2-14, 2-{1-[(1R,2S,5R)-2-isopropyl-5-methylcyclohexyl]-2-[(4-isopropyl-phenyl)amino]-1H-benzimidazol-5-yl}propan-2-ol]
  IC50: 120 nM

## COc1cc2c(cc1CCC(C)(C)O)nc(Nc1ccc(OC(F)(F)F)cc1)n2[C@H]1C[C@@H](C)CC(C)(C)C1 (single isomer, unassigned; enantiomer b) [Example 2-12-2, 4-(6-methoxy-2-{[4-(trifluoromethoxy)phenyl]amino}-1-[(cis)-3,3,5-trimethylcyclohexyl]-1H-benzimidazol-5-yl)-2-methylbutan-2-ol, enantiomer B]
  IC50: 10 nM

## Cc1cc2c(cc1C(C)(C)O)nc(Nc1ccc(OC(F)(F)F)cc1)n2[C@H]1C[C@@H](C)CC(C)(C)C1 (single isomer, unassigned; enantiomer b) [Example 2-3-2, 2-(6-methyl-2-{[4-(trifluoromethoxy)phenyl]amino}-1-[(cis)-3,3,5-trimethylcyclohexyl]-1H-benzimidazol-5-yl)propan-2-ol, enantiomer B]
  IC50: 20 nM

## COc1cc2c(cc1CO)nc(Nc1ccc(OC(F)(F)F)cc1)n2[C@H]1C[C@@H](C)CC(C)(C)C1 (racemic) [Example 2-6, (±) (6-methoxy-2-{[4-(trifluoromethoxy)phenyl]amino}-1-[(cis)-3,3,5-trimethylcyclohexyl]-1H-benzimidazol-5-yl)methanol]
  IC50: 20 nM

## Cc1cc2c(cc1CC(C)(C)O)nc(Nc1ccc(OC(F)(F)F)cc1)n2[C@H]1C[C@@H](C)CC(C)(C)C1 (racemic) [Example 2-8, (±) 2-methyl-1-(6-methyl-2-{[4-(trifluoromethoxy)phenyl]amino}-1-[(cis)-3,3,5-trimethylcyclohexyl]-1H-benzimidazol-5-yl)propan-2-ol]
  IC50: 30 nM

## COc1cc2c(cc1CCC(C)(C)O)nc(Nc1ccc(OC(F)(F)F)cc1)n2[C@H]1C[C@@H](C)CC(C)(C)C1 (single isomer, unassigned; enantiomer a) [Example 2-12-1, 4-(6-methoxy-2-{[4-(trifluoromethoxy)phenyl]amino}-1-[(cis)-3,3,5-trimethylcyclohexyl]-1H-benzimidazol-5-yl)-2-methylbutan-2-ol, enantiomer A]
  IC50: 50 nM

## C[C@@H]1C[C@H](n2c(Nc3ccc(OC(F)(F)F)cc3)nc3cc(CO)ccc32)CC(C)(C)C1 (single isomer, unassigned; enantiomer b) [Example 2-1-2, (2-{[4-(trifluoromethoxy)phenyl]amino}-1-[(cis)-3,3,5-trimethylcyclohexyl]-1H-benzimidazol-5-yl)methanol, enantiomer B]
  IC50: 70 nM

## CC(C)c1ccc(Nc2nc3cc(CCC(C)(C)O)ccc3n2[C@@H]2C[C@H](C)CC[C@H]2C(C)C)cc1 [Example 2-19, 4-{1-[(1R,2S,5R)-2-isopropyl-5-methylcyclohexyl]-2-[(4-isopropyl-phenyl)amino]-1H-benzimidazol-5-yl}-2-methylbutan-2-ol]
  IC50: 290 nM

## C[C@@H]1C[C@H](n2c(Nc3ccc(OC(F)(F)F)cc3)nc3cc(CC(C)(C)O)c(F)cc32)CC(C)(C)C1 (single isomer, unassigned; enantiomer a) [Example 2-10-1, 1-(6-fluoro-2-{[4-(trifluoromethoxy)phenyl]amino}-1-[(cis)-3,3,5-trimethylcyclohexyl]-1H-benzimidazol-5-yl)-2-methylpropan-2-ol, enantiomer A]
  IC50: 320 nM

## C[C@@H]1C[C@H](n2c(Nc3ccc(OC(F)(F)F)cc3)nc3cc(CC(C)(C)O)c(F)cc32)CC(C)(C)C1 (racemic) [Example 2-10, (±) 1-(6-fluoro-2-{[4-(trifluoromethoxy)phenyl]amino}-1-[(cis)-3,3,5-trimethylcyclohexyl]-1H-benzimidazol-5-yl)-2-methylpropan-2-ol]
  IC50: 240 nM

## Cc1cc2c(cc1C(C)(C)O)nc(Nc1ccc(OC(F)(F)F)cc1)n2[C@H]1C[C@@H](C)CC(C)(C)C1 (single isomer, unassigned; enantiomer a) [Example 2-3-1, 2-(6-methyl-2-{[4-(trifluoromethoxy)phenyl]amino}-1-[(cis)-3,3,5-trimethylcyclohexyl]-1H-benzimidazol-5-yl)propan-2-ol, enantiomer A]
  IC50: 80 nM

## COc1cc2c(cc1CC(C)(C)O)nc(Nc1ccc(OC(F)(F)F)cc1)n2[C@H]1C[C@@H](C)CC(C)(C)C1 (single isomer, unassigned; enantiomer b) [Example 2-9-2, 1-(6-methoxy-2-{[4-(trifluoromethoxy)phenyl]amino}-1-[(cis)-3,3,5-trimethylcyclohexyl]-1H-benzimidazol-5-yl)-2-methylpropan-2-ol, enantiomer B]
  IC50: 10 nM

## Cc1cc2c(cc1CC(C)(C)O)nc(Nc1ccc(OC(F)(F)F)cc1)n2[C@H]1C[C@@H](C)CC(C)(C)C1 (single isomer, unassigned; enantiomer a) [Example 2-8-1, 2-methyl-1-(6-methyl-2-{[4-(trifluoromethoxy)phenyl]amino}-1-[(cis)-3,3,5-trimethylcyclohexyl]-1H-benzimidazol-5-yl)propan-2-ol, enantiomer A]
  IC50: 120 nM

## COc1cc2c(cc1CC(C)(C)O)nc(Nc1ccc(OC(F)(F)F)cc1)n2[C@H]1C[C@@H](C)CC(C)(C)C1 (single isomer, unassigned; enantiomer a) [Example 2-9-1, 1-(6-methoxy-2-{[4-(trifluoromethoxy)phenyl]amino}-1-[(cis)-3,3,5-trimethylcyclohexyl]-1H-benzimidazol-5-yl)-2-methylpropan-2-ol, enantiomer A]
  IC50: 30 nM

## CC(C)[C@@H]1CC[C@@H](C)C[C@H]1n1c(Nc2ccc(OC(F)(F)F)cc2)nc2cc(CC(C)(C)O)ccc21 [Example 2-15, 1-(1-[(1R,2S,5R)-2-isopropyl-5-methylcyclohexyl]-2-{[4-(trifluoro-methoxy)phenyl]amino}-1H-benz-imidazol-5-yl)-2-methylpropan-2-ol]
  IC50: 40 nM
